This is an account of results in ChEMBL document CHEMBL5614400, “Emerging therapeutics: The imidazo[1,2-b]pyridazine scaffold as a novel drug candidate for eumycetoma, a neglected tropical disease” (Eur J Med Chem, 2024).

Data set [1] relates to Madurella mycetomatis. Kind of data set: Antifungal activity against Madurella mycetomatis MM55 by XTT assay. In kind it is functional, organism-based. Background: Tetrazolium assays rely on reduction of a dye to a coloured formazan, in cell work by metabolically active cells.
Data set [2] has as its system Madurella mycetomatis. Kind of data set: Antifungal activity against Madurella mycetomatis I11 by XTT assay. It is filed as functional.
The subject of data set [3] is Madurella mycetomatis. Kind of data set: Antifungal activity against Madurella mycetomatis P1 by XTT assay. It is filed as functional.
For data set [4], the system named is Madurella mycetomatis. Kind of data set: Antifungal activity against Madurella mycetomatis CBS247.48 by XTT assay. It is filed as functional.
For data set [5], the system named is Madurella mycetomatis. Kind of data set: Antifungal activity against Madurella mycetomatis I1 by XTT assay. In kind it is functional.
The test system of data set [6] is Madurella mycetomatis. Kind of data set: Antifungal activity against Madurella mycetomatis SO1 by XTT assay. It is filed as functional.
Data set [7] relates to Madurella mycetomatis. Kind of data set: Antifungal activity against Madurella mycetomatis I3 by XTT assay. In kind it is functional.
For data set [8], the system named is Madurella mycetomatis. Kind of data set: Antifungal activity against Madurella mycetomatis Peru72012 by XTT assay. In kind it is functional.
The nature of data set [9]: Selectivity index, ratio of IC50 for mouse NIH3T3 cells to IC50 for Madurella mycetomatis MM55. In kind it is toxicity. To be noted: read-out: Ratio IC50.
In data set [10] the test system is Madurella mycetomatis. Kind of data set: Antifungal activity against Madurella mycetomatis AL1 by XTT assay. In kind it is functional.
A short description of data set [11]: Cytotoxicity against mouse NIH3T3 cells incubated for 5 days by MTT assay. It is filed as toxicity, cell-based.
Data set [12] concerns Madurella mycetomatis. Kind of data set: Antifungal activity against Madurella mycetomatis MM50 by XTT assay. It is filed as functional.

pIC50: −log10 of the molar value. Converted amounts (≈) assume the structure as drawn.

For orientation: pIC50 means the IC50 on a negative log10 scale, so that one unit is a factor of ten. Higher therefore signals a low IC50. Consider `CN1CCN(c2cc(-c3cccc4[nH]ccc34)c3nc(-c4ccccc4F)cn3n2)CC1`, for which the pIC50 with Madurella mycetomatis [1] (Madurella mycetomatis, MM55) is 5.04.
On the same count and under the same terms, in the case of `CN1CCN(c2cc(-c3ccc(N)nc3)c3nc(-c4ccccc4F)cn3n2)CC1` it was 5.01.
Regarding `CN1CCN(c2cc(-c3ccsc3)c3nc(-c4ccc(F)cc4)cn3n2)CC1`, the pIC50 with Madurella mycetomatis [1] was 5.26.
The term MIC denotes the lowest concentration found to suppress growth. A higher MIC goes with a less susceptible organism. The term IC50 denotes the concentration that gives 50% inhibition. A lower IC50 goes with higher potency. For `CN1CCN(c2cc(-c3cccc4[nH]ccc34)c3nc(-c4ccc(F)cc4)cn3n2)CC1`, the MIC was 8 µM (≈ 3.41 µg/mL) against Madurella mycetomatis [2]; 8 µM (≈ 3.41 µg/mL) against Madurella mycetomatis [3]; 8 µM (≈ 3.41 µg/mL) against Madurella mycetomatis [4]; 8 µM (≈ 3.41 µg/mL) in the data set with Madurella mycetomatis [5]; 16 µM (≈ 6.82 µg/mL) against Madurella mycetomatis [6]; 8 µM (≈ 3.41 µg/mL) in the data set with Madurella mycetomatis [7]. Moreover, the MIC against Madurella mycetomatis [8] amounted to 8 µM (≈ 3.41 µg/mL); against Madurella mycetomatis [10], 8 µM (≈ 3.41 µg/mL); against Madurella mycetomatis [1] (Madurella mycetomatis, MM55), 8 µM (≈ 3.41 µg/mL); against Madurella mycetomatis [12], 8 µM (≈ 3.41 µg/mL). Moreover, the selectivity ratio in data set [9] came out at 7.5. Moreover, half-maximal inhibition in [11] (IC50 at 5 days) was put at 12.9 µM. Further, the pIC50 with Madurella mycetomatis [1] is 5.77.
With `CN1CCN(c2cc(-c3cccs3)c3nc(-c4ccc(F)cc4)cn3n2)CC1`, the negative logarithm of the IC50 (pIC50) in the data set on Madurella mycetomatis [1] (Madurella mycetomatis, MM55) is 5.07.
As to `OCCN1CCN(c2cc(-c3cnc(N4CCN(CCO)CC4)nc3)c3nc(-c4ccccc4F)cn3n2)CC1`, the MIC was above 16 µM against Madurella mycetomatis [2]; above 16 µM against Madurella mycetomatis [3]; above 16 µM against Madurella mycetomatis [4]; 16 µM (≈ 8.76 µg/mL) with Madurella mycetomatis [5]; above 16 µM against Madurella mycetomatis [6]; above 16 µM in the data set on Madurella mycetomatis [7]. The MIC is 16 µM (≈ 8.76 µg/mL) in the data set with Madurella mycetomatis [8]; above 16 µM against Madurella mycetomatis [10]; 8 µM (≈ 4.38 µg/mL) in the data set with Madurella mycetomatis [1] (Madurella mycetomatis, MM55); above 16 µM in the data set with Madurella mycetomatis [12]. The selectivity ratio in data set [9] stood at 0.8. In data set [11], this molecule had an IC50 at 5 days of 1.4 µM. The pIC50 in the data set on Madurella mycetomatis [1] (Madurella mycetomatis, MM55) was 5.42.
With `CN1CCN(c2cc(-c3cnc(N4CCN(C)CC4)nc3)c3nc(-c4ccccc4)cn3n2)CC1`, the MIC against Madurella mycetomatis [2] was 8 µM (≈ 3.76 µg/mL); against Madurella mycetomatis [3], 8 µM (≈ 3.76 µg/mL); in the data set on Madurella mycetomatis [4], 8 µM (≈ 3.76 µg/mL); with Madurella mycetomatis [5] it was 8 µM (≈ 3.76 µg/mL); with Madurella mycetomatis [6] it was 16 µM (≈ 7.51 µg/mL); against Madurella mycetomatis [7], 8 µM (≈ 3.76 µg/mL). For the same molecule, the MIC in the data set with Madurella mycetomatis [8] was determined as 8 µM (≈ 3.76 µg/mL); with Madurella mycetomatis [10], 8 µM (≈ 3.76 µg/mL); with Madurella mycetomatis [1] (Madurella mycetomatis, MM55) it was 2 µM (≈ 0.939 µg/mL); in the data set on Madurella mycetomatis [12], 8 µM (≈ 3.76 µg/mL). In data set [9], the selectivity ratio is 16. In data set [11], this molecule showed an IC50 at 5 days of 14.3 µM. The molecule further gave a pIC50 in the data set on Madurella mycetomatis [1] (Madurella mycetomatis, MM55) of 5.70.
Take `CN1CCN(c2cc(-c3cnc(N4CCN(C)CC4)nc3)c3nc(-c4cccc(F)c4)cn3n2)CC1`: the MIC against Madurella mycetomatis [2] stood at 4 µM (≈ 1.95 µg/mL); against Madurella mycetomatis [3] it was 4 µM (≈ 1.95 µg/mL); in the data set with Madurella mycetomatis [4] it was 2 µM (≈ 0.975 µg/mL); with Madurella mycetomatis [5], 4 µM (≈ 1.95 µg/mL); against Madurella mycetomatis [6], 4 µM (≈ 1.95 µg/mL); in the data set on Madurella mycetomatis [7] it was 4 µM (≈ 1.95 µg/mL). In addition, the MIC turned out to be 4 µM (≈ 1.95 µg/mL) in the data set with Madurella mycetomatis [8]; 4 µM (≈ 1.95 µg/mL) in the data set with Madurella mycetomatis [10]; 8 µM (≈ 3.9 µg/mL) against Madurella mycetomatis [1] (Madurella mycetomatis, MM55); 4 µM (≈ 1.95 µg/mL) with Madurella mycetomatis [12]. Moreover, in data set [9], the selectivity ratio was 5.5. Moreover, in [11], the IC50 at 5 days is 10.5 µM. Further, the pIC50 in the data set on Madurella mycetomatis [1] (Madurella mycetomatis, MM55) was 5.33.
Regarding `CN1CCN(c2cc(-c3cccc4[nH]ccc34)c3nc(-c4cccc(F)c4)cn3n2)CC1`, the MIC in the data set on Madurella mycetomatis [2] was 8 µM (≈ 3.41 µg/mL); against Madurella mycetomatis [3] it was 8 µM (≈ 3.41 µg/mL); against Madurella mycetomatis [4] it was 8 µM (≈ 3.41 µg/mL); against Madurella mycetomatis [5] it was 16 µM (≈ 6.82 µg/mL); against Madurella mycetomatis [6] it was 16 µM (≈ 6.82 µg/mL); against Madurella mycetomatis [7], 8 µM (≈ 3.41 µg/mL). Moreover, the MIC stood at 16 µM (≈ 6.82 µg/mL) against Madurella mycetomatis [8]; 8 µM (≈ 3.41 µg/mL) in the data set on Madurella mycetomatis [10]; 8 µM (≈ 3.41 µg/mL) with Madurella mycetomatis [1] (Madurella mycetomatis, MM55); 8 µM (≈ 3.41 µg/mL) in the data set on Madurella mycetomatis [12]. The selectivity ratio in data set [9] is 4.8. In addition, the IC50 at 5 days in data set [11] came to 10.1 µM. The pIC50 with Madurella mycetomatis [1] (Madurella mycetomatis, MM55) is 5.74.
Regarding `OCCN1CCN(c2cc(-c3cccc4[nH]ccc34)c3nc(-c4ccc(F)cc4)cn3n2)CC1`, the pIC50 in the data set with Madurella mycetomatis [1] (Madurella mycetomatis, MM55) was below 4.80.
As to `CN1CCN(c2cc(-c3cnn(C)c3)c3nc(-c4ccc(F)cc4)cn3n2)CC1`, the MIC in the data set on Madurella mycetomatis [2] was above 16 µM; in the data set with Madurella mycetomatis [3], 16 µM (≈ 6.26 µg/mL); against Madurella mycetomatis [4] it was 16 µM (≈ 6.26 µg/mL); with Madurella mycetomatis [5], 16 µM (≈ 6.26 µg/mL); in the data set on Madurella mycetomatis [6] it was above 16 µM; in the data set with Madurella mycetomatis [7], above 16 µM. In addition, the MIC was above 16 µM against Madurella mycetomatis [8]; above 16 µM against Madurella mycetomatis [10]; above 16 µM in the data set with Madurella mycetomatis [1] (Madurella mycetomatis, MM55); above 16 µM with Madurella mycetomatis [12]. Also, the selectivity ratio in [9] was determined as 3.1. In [11], this molecule gave a half-maximal inhibitory concentration (IC50) at 5 days of 9 µM. The molecule also had a pIC50 with Madurella mycetomatis [1] of 5.42.
`CCC(C)n1ncn(-c2ccc(N3CCN(c4ccc(OCC5COC(Cn6cncn6)(c6ccc(Cl)cc6Cl)O5)cc4)CC3)cc2)c1=O` (configuration not stated) [ITRACONAZOLE]: the MIC turned out to be 0.5 µM (≈ 0.353 µg/mL) in the data set with Madurella mycetomatis [2]; 0.25 µM (≈ 0.176 µg/mL) against Madurella mycetomatis [3]; 2 µM (≈ 1.41 µg/mL) with Madurella mycetomatis [4]; 8 µM (≈ 5.65 µg/mL) with Madurella mycetomatis [5]; 0.25 µM (≈ 0.176 µg/mL) in the data set with Madurella mycetomatis [6]; 1 µM (≈ 0.706 µg/mL) against Madurella mycetomatis [7]. Besides, the MIC against Madurella mycetomatis [8] stood at 0.5 µM (≈ 0.353 µg/mL); against Madurella mycetomatis [10], 0.06 µM (≈ 0.0423 µg/mL); with Madurella mycetomatis [1] (Madurella mycetomatis, MM55) it was 0.5 µM (≈ 0.353 µg/mL); with Madurella mycetomatis [12], 1 µM (≈ 0.706 µg/mL). In [9], the selectivity ratio came to 1.4. Besides, the IC50 at 5 days in data set [11] amounted to 13.7 µM. Besides, in the data set on Madurella mycetomatis [1] (Madurella mycetomatis, MM55), the pIC50 is 5.96.
`CN1CCN(c2cc(-c3cnc(N4CCN(C)CC4)nc3)c3nc(-c4ccccc4F)cn3n2)CC1`: the MIC came to 4 µM (≈ 1.95 µg/mL) in the data set with Madurella mycetomatis [2]; 4 µM (≈ 1.95 µg/mL) in the data set with Madurella mycetomatis [3]; 4 µM (≈ 1.95 µg/mL) in the data set on Madurella mycetomatis [4]; 4 µM (≈ 1.95 µg/mL) in the data set with Madurella mycetomatis [5]; 4 µM (≈ 1.95 µg/mL) in the data set on Madurella mycetomatis [6]; 16 µM (≈ 7.8 µg/mL) against Madurella mycetomatis [7]. Further, the minimum inhibitory concentration (MIC) against Madurella mycetomatis [8] was 4 µM (≈ 1.95 µg/mL); in the data set with Madurella mycetomatis [10], 4 µM (≈ 1.95 µg/mL); against Madurella mycetomatis [1] (Madurella mycetomatis, MM55) it was 16 µM (≈ 7.8 µg/mL); in the data set with Madurella mycetomatis [12], 4 µM (≈ 1.95 µg/mL). The selectivity ratio in data set [9] worked out at 2. In [11], this molecule yielded an IC50 at 5 days of 9.6 µM. Also, the pIC50 in the data set on Madurella mycetomatis [1] (Madurella mycetomatis, MM55) was 5.40.
As for `CN1CCN(c2cc(-c3cccc4[nH]ccc34)c3nc(-c4ccccc4)cn3n2)CC1`, the MIC against Madurella mycetomatis [2] was above 16 µM; against Madurella mycetomatis [3], 8 µM (≈ 3.27 µg/mL); against Madurella mycetomatis [4], 16 µM (≈ 6.54 µg/mL); against Madurella mycetomatis [5], 8 µM (≈ 3.27 µg/mL); in the data set with Madurella mycetomatis [6] it was 16 µM (≈ 6.54 µg/mL); in the data set with Madurella mycetomatis [7], 16 µM (≈ 6.54 µg/mL). For the same molecule, the MIC with Madurella mycetomatis [8] worked out at 8 µM (≈ 3.27 µg/mL); in the data set on Madurella mycetomatis [10], 16 µM (≈ 6.54 µg/mL); against Madurella mycetomatis [1] (Madurella mycetomatis, MM55) it was 8 µM (≈ 3.27 µg/mL); in the data set on Madurella mycetomatis [12], 16 µM (≈ 6.54 µg/mL). Also, in [9], the selectivity ratio was determined as 2.8. This molecule also displayed an IC50 at 5 days in data set [11] of 9.9 µM. In the data set with Madurella mycetomatis [1], this molecule showed a pIC50 of 5.32.
